{"source": "patent US5869699A", "about": "“1,2 chemiluminescent dioxetanes of improved performance” (Tropix, Inc., priority 1997, dated 1999)", "key": {"[1]": {"tested_on": "Alkaline phosphatase", "assay": "Chemiluminescence half-life of dephosphorylated dioxetane", "type": "biochemical", "settings": "for T1/2 (chemiluminescence half-life): 0.004 mM dioxetane, 30° C., 0.1M diethanolamine, 1 mM MgCl2, pH 10, alkaline phosphatase 1.05×10^-9 M, no enhancer; for t1/2 (chemiluminescence half-life): in a buffer solution; for T1/2 (chemiluminescence half-life), with Sapphire II enhancer: Sapphire II enhancer: 0.1M diethanolamine, 1 mM MgCl2, 10% polyvinylbenzyltributyl ammonium chloride at 1 mg/mL", "experimental": "Determination of the Chemiluminescence Half-Life of Dephosphorylated Dioxetane.\nA 1 mL aliquot of each dioxetane (0.004 mM) was equilibrated to 30° C. in 0.1M diethanolamine, 1 mM MgCl2, pH 10. Alkaline phosphatase (at final concentration of 1.05×10^-9 M) was added to the test tube and the chemiluminescent signal kinetics was measured in a Turner TD-20E luminometer for 10 to 20 minutes. The half-life was calculated from the plot of log RLU versus time. For TFE and TFE-ADP-Star, the chemiluminescent half-life was also determined in the presence of Sapphire II enhancer (in 0.1M diethanolamine, 1 mM MgCl2, 10% polyvinylbenzyltributyl ammonium chloride at 1 mg/mL)."}, "[2]": {"tested_on": "Alkaline phosphatase", "assay": "Peak light intensity of dephosphorylated dioxetanes", "type": "biochemical", "settings": "for PEAK INTENSITY: 0.004 mM dioxetane, 30° C., 0.1M diethanolamine, 1 mM MgCl2, pH 10, alkaline phosphatase 1.05×10^-9 M", "experimental": "Determination of the Peak Light Intensity of Dephosphorylated Dioxetanes\nA 0.5 mL aliquot of dioxetane (0.004 mM) was equilibrated to 30° C. in 0.1M diethanolamine, 1 mM MgCl2, pH 10. Alkaline phosphatase (final concentration of 1.05×10^-9 M) was added to the tube and the chemiluminescent signal was measured in a Turner TD-20E luminometer for 10 to 20 minutes."}, "[3]": {"tested_on": "biotinylated pBR322(35 mer)", "assay": "Detection of biotinylated pBR322 (35 mer) on nylon membrane", "settings": "for DNA CONC. (detection sensitivity): 5 minute exposure, 0.25 mM dioxetane, nylon membrane, pH 9.5 for CSPD and TFE, pH 9.0 for CDP-Star and TFE-ADP-Star", "description": "Detection of Biotinylated pBR322(35 mer) on Nylon Membrane\nSerial dilutions of biotinylated pBR322 (35 mer) were spotted onto strips of Tropilon-Plus nylon membrane. Spots correspond to 210 pg, 70 pg, 23.3 pg, 7.7 pg, 2.6 pg, 0.86 pg, 0.29 pg, 0.10 pg, 32.0 fg, 10.7 fg, 3.6 fg and 1.2 fg of biotinylated pBR322(35 mer). After spotting, the DNA was cross-linked to the membrane by UV fixation, the membranes were blocked with 0.2% I-Block, 5% sodium dodecyl sulfate (SDS) in phosphate buffered saline(PBS) (Blocking Buffer I), incubated with a 1-5000 dilution of Avidx-AP in Blocking Buffer I for 30 minutes, washed twice with 5% SDS in PBS for 5 minutes, rinsed twice with Assay Buffer, incubated for 5 minutes in 0.25 mM dioxetane phosphate in Assay Buffer and exposed to X-ray film for 5 minutes. The membrane strips incubated with CSPD, and TFE were rinsed with 0.1M diethanolamine, 1 mM MgCl2, pH 9.5 and those incubated with CDP-Star, and TFE-ADP-Star were rinsed with the same buffer at pH 9.0. The Assay Buffer for CSPD and TFE was 0.1M diethanolamine, 1 mM MgCl2, pH 9.5 and for CD-Star, and TFE-ADP-Star was the same buffer at pH 9.0."}, "[4]": {"tested_on": "Alkaline phosphatase", "assay": "Enzymatic triggering of the prepared dioxetane with alkaline phosphatase to produce light", "type": "biochemical", "experimental": "480 milligrams of chromatographed disodium 2-chloro-5-(2,2,2-trifluoroethoxy tricyclo[3.3.1.1^3,7 ]dec-2-ylidenemethyl)phenyl phosphate was placed in a tube and wet down with anhydrous methanol, 4 mL. Chloroform, 40 mL, was added to obtain a solution. A solution of tetraphenylporphine (TPP), 6 milligrams in 3 mL chloroform, was then added to yield a pink-purple reaction mixture. The solution was cooled in an ice bath while sparging with oxygen through a Pasteur pipette for 5 minutes. The gas flow was continued while the solution was irradiated with a 400 watt sodium vapor lamp which had been filtered with a 3.0 mil thickness of DuPont Kapton film. After 40 minutes, a small sample was blown down and dissolved in water which contained 0.1% NaHCO3. Analytical HPLC, under conditions described above for the starting material, indicated a new product which eluted at 12.1 minutes. The starting material, eluting at 12.5 minutes, was present in just a trace amount. The reaction was stripped of solvents and pumped to yield a dark red foam. This was dissolved in 80 mL water which contained 5 drops of 0.5M NaOH. The solution was filtered to remove insolubles, and was preparatively chromatographed on a one inch PLRP-S column (Polymer Laboratories) using an acetonitrile/water gradient. The product peak was shaved on the front and in the back, collecting only the middle cut. […]"}, "[5]": {"settings": "nylon membrane blotting, TABLE III"}}, "note": "Counter-ions that a name gives are not always drawn."}
{"smiles": "COC1(c2ccc(Cl)c(OP(=O)(O)O)c2)OOC12C1CC3CC(C1)CC2C3", "note": "(stereo not shown) [ADP-Star]", "values": [{"measurement": "T1/2 (chemiluminescence half-life)", "setting": "[1]", "result": 2.7, "unit": "min"}, {"measurement": "PEAK INTENSITY", "setting": "[2]", "result": 682, "unit": "RLU"}]}
{"smiles": "COC1(c2cccc(OP(=O)(O)O)c2)OOC12C1CC3CC(C1)CC2C3", "note": "(stereo not shown) [AMPPD, 3-(2'-spiroadamantane)-4-methoxy-4-(3\"-phosphoryloxy)-phenyl-1,2-dioxetanedisodium salt]", "values": [{"measurement": "t1/2 (chemiluminescence half-life)", "setting": "[1]", "result": 2.1, "unit": "min"}]}
{"smiles": "COC1(c2ccc(Cl)c(OP(=O)(O)O)c2)OOC12C1CC3CC2CC(Cl)(C3)C1", "note": "(stereo not shown) [CDP-Star]", "values": [{"measurement": "DNA CONC. (detection sensitivity)", "setting": "[3]", "result": 0.86, "unit": "PICOGRAMS"}, {"measurement": "T1/2 (chemiluminescence half-life)", "setting": "[1]", "result": 1.2, "unit": "min"}, {"measurement": "PEAK INTENSITY", "setting": "[2]", "result": 863, "unit": "RLU"}]}
{"smiles": "COC1(c2cccc(OP(=O)(O)O)c2)OOC12C1CC3CC2CC(Cl)(C3)C1", "note": "(stereo not shown) [CSPD]", "values": [{"measurement": "DNA CONC. (detection sensitivity)", "setting": "[3]", "result": 23.3, "unit": "PICOGRAMS"}, {"measurement": "T1/2 (chemiluminescence half-life)", "setting": "[1]", "result": 0.6, "unit": "min"}, {"measurement": "half-life compared with TFE", "setting": "[1]; by itself in a buffer", "result": "shorter than TFE"}, {"measurement": "PEAK INTENSITY", "setting": "[2]", "result": 200, "unit": "RLU"}]}
{"smiles": "O=P(O)(O)Oc1cc(C2(OCC(F)(F)F)OOC23C2CC4CC(C2)CC3C4)ccc1Cl", "note": "(stereo not shown) [TFE-ADP-Star, Disodium 2-chloro-5-(4-(2,2,2-trifluoroethoxy)spiro{1,2-dioxetane-3,2'-tricyclo[3.3.1.1^3,7]decan}-4-yl-phenyl phosphate]", "values": [{"measurement": "DNA CONC. (detection sensitivity)", "setting": "[3]", "result": 0.0107, "unit": "PICOGRAMS"}, {"measurement": "amount of DNA detected relative to TFE", "setting": "[3]; [5]", "result": "close to one thousand times less DNA than TFE"}, {"measurement": "sensitivity compared with CDP-Star", "setting": "[3]; [5]", "result": "more sensitive than CDP-Star"}, {"measurement": "T1/2 (chemiluminescence half-life)", "setting": "[1]", "result": 2.0, "unit": "min"}, {"measurement": "T1/2 (chemiluminescence half-life), with Sapphire II enhancer", "setting": "[1]", "result": 5.0, "unit": "min"}, {"measurement": "light production on enzymatic triggering with alkaline phosphatase", "setting": "[4]", "result": "produce light"}, {"measurement": "PEAK INTENSITY", "setting": "[2]", "result": 390, "unit": "RLU"}, {"measurement": "chemiluminescent signal intensity / relative emission efficiency", "setting": "[2]; comment on TABLE II", "result": "generates a higher intensity signal"}]}
{"smiles": "O=P([O-])([O-])Oc1cccc(C2(OCC(F)(F)F)OOC23C2CC4CC3CC(Cl)(C4)C2)c1.[Na+].[Na+]", "note": "(stereo not shown) [TFE-CDP-Star, Disodium 3-(4-(2,2,2-trifluoroethoxy)spiro{1,2-dioxetane-3,2'-(5'-chloro)tricyclo [3.3.1,1^3,7]decan}-4-yl)phenyl phosphate]", "values": [{"measurement": "duration of burst of light on addition of excess alkaline phosphatase", "setting": "[4]; HPLC peak of basified reaction sample, pH 10 aqueous diethanolamine buffer, excess alkaline phosphatase", "result": 3, "unit": "min"}]}
{"smiles": "O=P(O)(O)Oc1cccc(C2(OCC(F)(F)F)OOC23C2CC4CC(C2)CC3C4)c1", "note": "(stereo not shown) [TFE]", "values": [{"measurement": "DNA CONC. (detection sensitivity)", "setting": "[3]", "result": 7.7, "unit": "PICOGRAMS"}, {"measurement": "T1/2 (chemiluminescence half-life)", "setting": "[1]", "result": 0.9, "unit": "min"}, {"measurement": "T1/2 (chemiluminescence half-life), with Sapphire II enhancer", "setting": "[1]", "result": 15.5, "unit": "min"}, {"measurement": "t1/2 (chemiluminescence half-life)", "setting": "[1]", "result": 0.9, "unit": "min"}, {"measurement": "t1/2 in the presence of enhancers", "setting": "[1]; in the presence of enhancers", "result": 15, "unit": "min"}, {"measurement": "PEAK INTENSITY", "setting": "[2]", "result": 282, "unit": "RLU"}]}
